We go through 21 compounds from PubChem BioAssay AID2744 (NMMLSC, 2010).

The target in this experiment is Citrate synthase, peroxisomal (Saccharomyces cerevisiae (strain ATCC 204508 / S288c)) (UniProt P08679). Briefly: CIT2-GFP expression modulators in yeast, dose response, flow cytometry, MLPCN hits (AID 2744). The settings on record: S. cerevisiae CIT2-GFP strain, 3 h; for GFP fluorescence, higher = induction: at 33 µM (top of the series); for EC50: flow cytometry fluorescence. For orientation: A flow cytometer gives signals particle by particle.

Each structure is given as a SMILES string. The source made the active and inactive calls.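 Rule for the calls: active = fitted half-maximal concentration for changing reporter fluorescence at or below a set limit; inactive = the rest.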

Sequence of Citrate synthase, peroxisomal (Saccharomyces cerevisiae (strain ATCC 204508 / S288c)) (P08679 whole entry, looked up): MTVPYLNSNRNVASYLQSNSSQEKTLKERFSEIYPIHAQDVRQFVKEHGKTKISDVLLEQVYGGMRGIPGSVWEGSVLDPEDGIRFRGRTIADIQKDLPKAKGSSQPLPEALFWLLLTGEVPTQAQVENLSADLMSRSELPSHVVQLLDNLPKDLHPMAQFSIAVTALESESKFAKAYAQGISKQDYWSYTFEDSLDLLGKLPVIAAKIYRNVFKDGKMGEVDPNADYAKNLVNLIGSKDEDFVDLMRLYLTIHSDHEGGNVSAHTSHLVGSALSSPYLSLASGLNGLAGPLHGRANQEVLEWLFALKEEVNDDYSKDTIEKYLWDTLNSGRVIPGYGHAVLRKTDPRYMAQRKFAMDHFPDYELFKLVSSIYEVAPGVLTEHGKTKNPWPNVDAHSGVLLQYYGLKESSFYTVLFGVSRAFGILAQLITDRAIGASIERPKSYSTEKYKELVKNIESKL

On to `O=C(CS(=O)c1ccccc1[N+](=O)[O-])Oc1ccc(Br)cc1` (stereo unspecified), for which the “GFP fluorescence, higher = induction” value was “inactive”.

`Cc1ccc(NN2C(=O)C=C(c3ccc(Cl)cc3)C2=O)cc1`: the “GFP fluorescence, higher = induction” value is “inactive”.

On to `O=C(O)C1Sc2[nH]c(=O)sc2C2c3cc(Br)ccc3OC(=O)C12` (stereo unspecified), for which the “GFP fluorescence, higher = induction” value was “inactive”.

As for `CCN(CC)c1ccc2cc(-c3nc(-c4ccc(OC)cc4)cs3)c(=O)oc2c1`, the “GFP fluorescence, higher = induction” value was “inactive”.

As for `CCN(CC)C(=S)SSC(=S)N(CC)CC`, the “GFP fluorescence, higher = induction” value was “inactive”.

`COc1ccc([C@@]2(C(C)C)ON(c3ccccc3C(F)(F)F)C2=O)cc1`: the “GFP fluorescence, higher = induction” value is “inactive”.

Turning to `O=C1c2cccc3c([N+](=O)[O-])ccc(c23)C(=O)N1c1ccccn1`, the “GFP fluorescence, higher = induction” value was “inactive”.

Consider `C=CCOc1cccc(C(=O)/C=C2/C(=O)Nc3ccccc32)c1`, for which the “GFP fluorescence, higher = induction” value is “inactive”.

`O=c1oc2cc(Oc3c([N+](=O)[O-])cc(C(F)(F)F)cc3[N+](=O)[O-])ccc2c2c1CCCC2`: the “GFP fluorescence, higher = induction” value is “inactive”.

For `COc1ccc(OCC(=O)NNC(=S)NC(=O)C2CCCCC2)cc1`, the “GFP fluorescence, higher = induction” value is “inactive”.

As to `CCCOc1ccc(C(=O)NNC(=S)NC(=O)c2ccco2)cc1`, the “GFP fluorescence, higher = induction” value was “inactive”.

`Cc1ccc(O)c(N=Nc2nccs2)c1`: the EC50 (in general, the concentration needed to bring the measured effect to its halfway point) is 11.3 µM.

Turning to `CCCOc1ccc(C(=O)NNC(=S)NC(=O)CC)cc1`, the EC50 is 3.1 µM.

Turning to `CCC(C)/C(C)=N/NC(=O)c1ccc(COc2ccc(Cl)c(C)c2)cc1` (stereo unspecified), the “GFP fluorescence, higher = induction” value was “inactive”.

Turning to `COc1ccc(N2C(=O)C(Cl)=C(Oc3cccc(OC)c3)C2=O)cc1`, the “GFP fluorescence, higher = induction” value was “inactive”.

As to `Cc1ccccc1OCC(=O)NNC(=S)NC(=O)c1ccco1`, the “GFP fluorescence, higher = induction” value is “inactive”.

`Cc1ccc(NC(=O)CCc2ccccc2)cc1S(=O)(=O)N1CCOCC1`: the “GFP fluorescence, higher = induction” value is “inactive”.

As for `O=C(O)c1cccc(S(=O)(=O)Nc2ccc(S(=O)(=O)N3CCOCC3)cc2)c1`, the “GFP fluorescence, higher = induction” value was “inactive”.

Consider `CC(=O)Oc1oc(-c2ccccc2)nc1C=Nc1ccccc1`, for which the “GFP fluorescence, higher = induction” value is “inactive”.

Turning to `O=c1cc(-c2ccccc2)cc(-c2ccccc2)n1O`, the “GFP fluorescence, higher = induction” value is “inactive”.

`O=C1NC(=O)N(c2ccccc2)C(=O)/C1=C/c1ccc(Sc2ccccc2)o1`: the “GFP fluorescence, higher = induction” value is “inactive”.
